Read-outs that look alike come from different tables or passages of the source.
Experiments:
[1] = Metabolic stability in human liver microsomes; format: in vitro ADME; conditions: for metabolic stability as compared to dasatinib: human liver microsomes; for half-life at 1 μM / microsomal CLint at 1 μM: human, liver microsomes, human liver microsomes 0.5 mg/mL, NADPH and UDPGA, 37° C.; for half-life at 1 μM: read-out: In vitro t1/2; for microsomal CLint at 1 μM: read-out: CLint (intrinsic clearance)
Experimental: FIG. 1. Metabolic stability of compounds in human liver microsomal incubations. […] Concentrations at specified times were determined by LC-MS/MS.
The incubation reactions at various time points were quenched by adding 2× volumes of acetonitrile containing 100 nM reserpine. The quenched incubation samples were centrifuged at 4000 RPM for 10 min, and the supernatants injected for LC/MS/MS analysis. LC/MS/MS analysis was carried out on a AB Sciex 4000 Q Trap LC/MS/MS system coupled with Shimadzu Prominence UFLCXR 20 series (including a CBM-20A controller, two LC-20ADXR solvent delivery units, SIL-20AC HT autosampler, CTO-20A column oven, and a SPD-20A UV detector).

[2] = Pharmacokinetics in Sprague-Dawley rats, 2-in-1 dosing; format: in vivo; conditions: for clearance / Vd / AUC(0-inf) / AUC(0-t) / half-life / bioavailability / Cmax / Tmax: Sprague-Dawley, rat; for clearance / Vd / AUC(0-inf) / AUC(0-t) / half-life / bioavailability: plasma; for clearance: read-out: CL (plasma clearance) (converted); for Vd: read-out: V (volume of distribution); for AUC(0-inf) / AUC(0-t) / half-life / Cmax / Tmax: single dose; for bioavailability: read-out: F (percent oral bioavailability); for intravenous plasma clearance compared to dasatinib and compound III / intravenous volume of distribution compared to dasatinib and compound III: Sprague-Dawley rats
Experimental: Sprague-Dawley rats (approximate weight 275-300 g, N=3) were dosed intravenously at 5 mL/kg and orally at 10 mL/kg with the above dosing solutions. Blood samples were collected into tubes containing EDTA as the anticoagulant at 0, 0.25 (intravenous only), 0.5, 1, 2, 4, 8, 10, and 24 h post-dosing, and plasma samples were prepared by centrifugation. The plasma samples were mixed with 3× volumes of acetonitrile containing 100 nM reserpine as the internal standard, and centrifuged at 4000 RPM for 15 min. The supernatants were injected for LC/MS analysis which were carried out on a AB Sciex 4000 Q Trap LC/MS/MS system coupled with Shimadzu Prominence UFLCXR 20 series (including a CBM-20A controller, two LC-20ADXR solvent delivery units, SIL-20AC HT autosampler, CTO-20A column oven, and a SPD-20A UV detector). The samples were separated on a Phenomenex Columbus column (C18, 4 μm, 50×2 mm) eluted with two solvent systems: 2 mM ammonium acetate in water containing 0.1% formic acid (A) and methanol (B) at a linear gradient starting with 25% B. Electrospray ionization in positive mode was used to acquire LC/MS/MS data.

[3] = target: T1, BTK (Homo sapiens, UniProt Q06187); experiment: Off-chip Mobility Shift Assay; format: biochemical; conditions: read-out: IC50, recombinant BTK activity
T1 construct: purchased Carna Biosciences
T1 sequence (Q06187 whole entry): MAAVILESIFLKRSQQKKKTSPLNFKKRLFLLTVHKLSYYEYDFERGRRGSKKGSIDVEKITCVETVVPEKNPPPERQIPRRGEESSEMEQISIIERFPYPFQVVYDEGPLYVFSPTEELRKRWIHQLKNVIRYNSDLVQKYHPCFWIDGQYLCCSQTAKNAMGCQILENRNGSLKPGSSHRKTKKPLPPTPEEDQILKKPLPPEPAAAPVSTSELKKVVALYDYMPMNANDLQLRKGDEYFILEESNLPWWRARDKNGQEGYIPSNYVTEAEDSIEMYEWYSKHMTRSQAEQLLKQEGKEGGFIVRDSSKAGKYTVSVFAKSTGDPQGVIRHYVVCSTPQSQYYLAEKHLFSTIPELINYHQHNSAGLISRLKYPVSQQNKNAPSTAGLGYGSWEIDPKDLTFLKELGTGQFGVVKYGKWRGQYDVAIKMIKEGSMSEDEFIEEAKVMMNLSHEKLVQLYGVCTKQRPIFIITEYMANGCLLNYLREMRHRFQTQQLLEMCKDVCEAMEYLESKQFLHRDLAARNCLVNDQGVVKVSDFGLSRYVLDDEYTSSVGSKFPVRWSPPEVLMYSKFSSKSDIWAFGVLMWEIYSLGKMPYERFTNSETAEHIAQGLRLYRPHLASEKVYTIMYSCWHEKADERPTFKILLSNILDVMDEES

[4] = test system: RAF1; experiment: Off-chip Mobility Shift Assay; format: biochemical
[5] = iv, 1 mg/kg, intravenous 1 mg/kg, single dose (Table 2)
[6] = iv, 1 mg/kg, intravenous 1 mg/kg, single dose (Table 3)
[7] = iv, 1 mg/kg, intravenous 1 mg/kg, plasma (Table 2)
[8] = iv, 1 mg/kg, intravenous 1 mg/kg, plasma (Table 2), read-out: t1/2 (converted)
[9] = iv, 1 mg/kg, intravenous 1 mg/kg, plasma (Table 3)
[10] = iv, 1 mg/kg, intravenous 1 mg/kg, plasma (Table 3), read-out: t½ (converted)
[11] = po, 2.5 mg/kg, PO 2.5 mg/kg, plasma (Table 2)
[12] = po, 2.5 mg/kg, PO 2.5 mg/kg, plasma (Table 2), read-out: t1/2 (converted)
[13] = po, 5 mg/kg, PO 5 mg/kg, plasma (Table 3)
[14] = po, 5 mg/kg, PO 5 mg/kg, plasma (Table 3), read-out: t½ (converted)
[15] = PO 2.5 mg/kg versus intravenous 1 mg/kg, AUCinf dose normalized (Table 2)

SMILES | metabolic stability as compared to dasatinib [1] | clearance [2, 5] [mL/min/kg] | Vd [2, 5] [L/kg] | AUC(0-inf) [2, 7] [ng·h/mL] | AUC(0-t) [2, 7] [ng·h/mL] | half-life [2, 8] [h] | AUC(0-inf) [2, 11] [ng·h/mL] | AUC(0-t) [2, 11] [ng·h/mL] | half-life [2, 12] [h] | bioavailability [2, 15] [%] | Cmax ([2]; PO 2.5 mg/kg, plasma (Table 2)) [ng/mL] | Tmax ([2]; PO 2.5 mg/kg, plasma (Table 2)) [h] | half-life at 1 μM [1] [h] | microsomal CLint at 1 μM [1] [µL/min/mg] | also measured
Cc1nc(Nc2ncc(C(=O)Nc3c(C)cccc3Cl)s2)cc(N2CC[C@@H](N)C2)n1 [Compound XIII, N-(2-chloro-6-methylphenyl)-2-[[2-methyl-6-((R)-3-aminopyrrolidin-1-yl)pyrimidin-4-yl]amino]thiazole-5-carboxamide] | significantly greater stability | – | – | – | – | – | – | – | – | – | – | – | – | – | –
Cc1nc(Nc2ncc(C(=O)Nc3c(C)cccc3Cl)s2)cc(N2CCN(CCO)CC2)n1 [Dasatinib, reference compound] | – | 21.3 | 3 | 784 ± 54 | 783 ± 54 | 1.5 | 196 ± 85 | 193 ± 86 | 3.5 ± 0.5 | 9.8 ± 3.6 | 15 ± 5 | 5.5 ± 4.3 | – | – | clearance [2, 6]: 16.5 mL/min/kg; Vd [2, 6]: 2 L/kg; AUC(0-inf) [2, 9]: 1010 ± 68 ng·h/mL; AUC(0-t) [2, 9]: 1010 ± 68 ng·h/mL; half-life [2, 10]: 1.7 ± 0.3 h; AUC(0-inf) [2, 13]: 97 ± 22 ng·h/mL; AUC(0-t) [2, 13]: 93 ± 23 ng·h/mL; half-life [2, 14]: 5.9 ± 1.5 h; Cmax ([2]; PO 5 mg/kg, plasma (Table 3)): 7 ± 7 ng/mL; Tmax ([2]; PO 5 mg/kg, plasma (Table 3)): 0.5 h
[2H]c1cc(C)c(NC(=O)c2cnc(Nc3cc(N4CC[C@H](N)C4)nc(C)n3)s2)c(Cl)c1 [Compound VI, N-(2-chloro-4-dutero-6-methylphenyl)-2-[[2-methyl-6-((S)-3-aminopyrrolidin-1-yl)pyrimidin-4-yl]amino]thiazole-5-carboxamide] | significantly greater stability | – | – | – | – | – | – | – | – | – | – | – | – | – | –
[2H]c1cc(C)c(NC(=O)c2cnc(Nc3cc(N4CCN(CCO)CC4)nc(C)n3)s2)c(Cl)c1 [Compound III] | – | 20.2 | 3 | 835 ± 114 | 835 ± 114 | 1.6 ± 0.1 | 144 ± 68 | 139 ± 69 | 4.7 ± 2.2 | 7.2 ± 4.2 | 9 ± 6 | 5.5 ± 4.3 | 0.4 | – | clearance [2, 6]: 18.6 mL/min/kg; Vd [2, 6]: 3 L/kg; AUC(0-inf) [2, 9]: 917 ± 161 ng·h/mL; AUC(0-t) [2, 9]: 916 ± 161 ng·h/mL; half-life [2, 10]: 1.7 ± 0.2 h; AUC(0-inf) [2, 13]: 137 ± 20 ng·h/mL; AUC(0-t) [2, 13]: 124 ± 26 ng·h/mL; half-life [2, 14]: 8.2 ± 4.1 h; bioavailability ([2]; PO 5 mg/kg versus intravenous 1 mg/kg, AUCinf dose normalized (Table 3)): 6 ± 0.9%; Cmax ([2]; PO 5 mg/kg, plasma (Table 3)): 11 ± 11 ng/mL; Tmax ([2]; PO 5 mg/kg, plasma (Table 3)): 0.5 h
Cc1nc(Nc2ncc(C(=O)Nc3c(C)cccc3Cl)s2)cc(N2CC[C@H](N)C2)n1 [Compound XII, N-(2-chloro-6-methylphenyl)-2-[[2-methyl-6-((S)-3-aminopyrrolidin-1-yl)pyrimidin-4-yl]amino]thiazole-5-carboxamide] | significantly greater stability | – | – | – | – | – | – | – | – | – | – | – | – | – | –
[2H]c1cc(C)c(NC(=O)c2cnc(Nc3cc(N4CC[C@H](O)C4)nc(C)n3)s2)c(Cl)c1 [Compound IV, N-(2-chloro-4-deutero-6-methylphenyl)-2-[[2-methyl-6-((S)-3-hydroxypyrrolidin-1-yl)pyrimidin-4-yl]amino]thiazole-5-carboxamide] | significantly greater stability | 8.92 | 1 | 1880 ± 153 | 1880 ± 152 | 1.4 ± 0.1 | 892 ± 341 | 891 ± 341 | 2.3 ± 0.2 | 18.9 ± 6.7 | 82 ± 13 | 5.5 ± 4.3 | > 0.983 | < 24 | intravenous plasma clearance compared to dasatinib and compound III [2]: much lower; intravenous volume of distribution compared to dasatinib and compound III [2]: significantly lower
Cc1nc(Nc2ncc(C(=O)Nc3c(C)cccc3Cl)s2)cc(N2CCCCC2)n1 [Compound VIII, N-(2-chloro-6-methylphenyl)-2-[[2-methyl-6-(piperidin-1-yl)pyrimidin-4-yl]amino]thiazole-5-carboxamide] | significantly greater stability | – | – | – | – | – | – | – | – | – | – | – | – | – | –
Cc1nc(Nc2ncc(C(=O)Nc3c(C)cccc3Cl)s2)cc(N2CCC(O)CC2)n1 [Compound IX, N-(2-chloro-6-methylphenyl)-2-[[2-methyl-6-(4-hydroxypiperidin-1-yl)pyrimidin-4-yl]amino]thiazole-5-carboxamide] | – | – | – | – | – | – | – | – | – | – | – | – | 0.417 | 56 | –
[2H]c1cc(C)c(NC(=O)c2cnc(Nc3cc(N4CC[C@@H](N)C4)nc(C)n3)s2)c(Cl)c1 [Compound VII, N-(2-chloro-4-deutero-6-methylphenyl)-2-[[2-methyl-6-((R)-3-aminopyrrolidin-1-yl)pyrimidin-4-yl]amino]thiazole-5-carboxamide] | significantly greater stability | – | – | – | – | – | – | – | – | – | – | – | – | – | –
[2H]c1cc(C)c(NC(=O)c2cnc(Nc3cc(N4CCC(O)CC4)nc(C)n3)s2)c(Cl)c1 [Compound II, N-(2-chloro-4-deuterio-6-methyl-phenyl)-2-[[6-(4-hydroxy-1-piperidyl)-2-methyl-pyrimidin-4-yl]amino]thiazole-5-carboxamide] | – | – | – | – | – | – | – | – | – | – | – | – | 0.533 | 44 | IC50 [3]: < 1 nM; inhibition of RAF1 ([4]; 1 nM): < 50%; inhibition of RAF1 ([4]; 10 nM): < 50%; inhibition of RAF1 ([4]; 100 nM): < 50%
[2H]c1cc(C)c(NC(=O)c2cnc(Nc3cc(N4CC[C@@H](O)C4)nc(C)n3)s2)c(Cl)c1 [Compound V, N-(2-chloro-4-deutero-6-methylphenyl)-2-[[2-methyl-6-((R)-3-hydroxypyrrolidin-1-yl)pyrimidin-4-yl]amino]thiazole-5-carboxamide] | significantly greater stability | 8.57 | 1 | 1960 ± 214 | 1960 ± 214 | 1.4 ± 0.1 | 539 ± 188 | 524 ± 191 | 4.4 ± 2.8 | 11.1 ± 4.3 | 35 ± 19 | 5.5 ± 4.3 | > 0.983 | < 24 | intravenous plasma clearance compared to dasatinib and compound III [2]: much lower; intravenous volume of distribution compared to dasatinib and compound III [2]: significantly lower

From US20180099961A1, “PROTEIN KINASE INHIBITORS” (Princeton Drug Discovery Inc, priority 2016, published 2018)
